Test: Cooling intensity: panelists taste aqueous solutions, compared with menthol at 2 ppm
Format: in vivo, human
Details: tasted by a small group of panelists

Row | SMILES | Concentration with a cooling intensity similar to or slightly higher than that of a solution of menthol at 2 ppm [ppm]
1 | Cc1nc2ccccc2n1CCc1ccccc1 [Example 1, 2-methyl-1-phenethyl-1H-benzo[d]imidazole] | 0.03
2 | COc1ccc(CCn2c(C)nc3ccccc32)cc1 [Example 2, 1-(4-methoxyphenethyl)-2-methyl-1H-benzo[d]imidazole] | 0.1
3 | CC1CCC(C(C)C)C(O)C1 (stereo not shown) [I-Menthol, I-menthol] | 2.0
4 | CCNC(=O)C1CC(C)CCC1C(C)C (stereo not shown) [WS-3, N-ethyl p-menthanecarboxamide] | 1.5
